{"source": "patent US20260365654A1", "about": "“PRMT5 INHIBITOR AND USE THEREOF” (SHANGHAI APEIRON THERAPEUTICS COMPANY LIMITED, priority 2022, published 2026)", "key": {"HCT-116 wild-type cells": {"system": "HCT-116 wild-type cells", "assay": "Proliferation inhibitory activity of compound on HCT-116 Wild Type cells", "format": "cell-based", "conditions": "Cell-Titer Glo, 8 d, 0-10,000 nM, 2-fold dilution, 10 points, 0.1% DMSO", "experimental": "Test case 2: Test on proliferation inhibitory activity of compound on HCT-116 Wild Type cells Materials and cells: HCT-116 wild-type cells were purchased from Botron Healthcare (China); RPMI-1640 medium, fetal bovine serum and penicillin-streptomycin were purchased from Thermo Fisher (United States); 384-well plates were purchased from PerkinElmer (United States); Cell-Titer Glo kit was purchased from Promega (United States).\nCell culture: HCT-116 wild-type cells were cultured with a RPMI-1640 medium containing […]+1% penicillin-streptomycin at 37 °C in 5% CO2. Only cells in the logarithmic growth phase could be used for the test.\nTest of cell proliferation activity: Cell-Titer Glo kit was used to test the proliferation inhibitory activity of the compound on HCT-116 wild-type cells. The cell concentration was adjusted, 40 μL per well was inoculated into a 384-well plate and incubated overnight at 37 °C in […]. 40 nL of the compound was added to each well to reach a final concentration of 0-10,000 nM (starting concentration 10,000 nM, 2-fold dilution, 10 points), and the cell plate with 0.1% DMSO content was incubated at 37 °C and […] for 8 d. 40 μL of Cell-Titer Glo reagent was added to test cell viability."}, "[1]": {"system": "HCT-116 MTAP(−/−)deleted cells", "assay": "Inhibitory activity of compounds on the proliferation of HCT-116 MTAP(−/−)deleted cells", "format": "cell-based", "conditions": "Cell-Titer Glo, 8 d, 0-10,000 nM, 3-fold dilution, 10 points, 0.1% DMSO", "excerpt": "Test case 1: Inhibitory activity of compounds on the proliferation of HCT-116 MTAP(−/−)deleted cells Materials and cells: HCT-116 MTAP(−/−)deleted cells were purchased from Botron Healthcare (China); RPMI-1640 medium, fetal bovine serum and penicillin-streptomycin were purchased from Thermo Fisher (United States); 384-well plates were purchased from PerkinElmer (United States); Cell-Titer Glo kit was purchased from Promega (United States).\nCell culture: HCT116 MTAP(−/−)deleted cells were cultured with RPMI 1640 medium containing 10% fetal bovine serum +1% penicillin-streptomycin at 37 °C in 5% CO2. Only cells in the logarithmic growth phase could be used for the test.\nTest of inhibitory activity on cell proliferation: The Cell-Titer Glo kit was used to test the proliferation inhibitory activity of the compounds on HCT-116 MTAP(−/−)deleted cells. The cell concentration was adjusted, It was inoculated at 40 μL per well into a 384-well plate and incubated overnight at 37 °C in 5% CO2. 40 μL of the compound was added to each well to reach a final concentration of 0-10,000 nM (starting concentration 10,000 nM, 3-fold dilution, 10 points), and the cell plate with 0.1% DMSO content was incubated at 37 °C and 5% CO2 for 8 d. 40 μL of Cell-Titer Glo reagent was added to test cell viability."}}}
{"compound": "Nc1nc2cc(Cl)c(C(=O)N3CCOCC3c3ccc(C(F)(F)F)cc3)cc2n2cncc12", "note": "(stereo in doubt) [Example 4A, (3R)-3-[4-(trifluoromethyl)phenyl]morpholin-4-yl 4-amino-7-chloro(10-hydroimidazo[1,5-a]quinoxalin-8-yl)one]", "values": [{"measurement": "IC50", "setting": "HCT-116 wild-type cells; Homo sapiens, 192 h", "result": 512, "unit": "nM"}, {"measurement": "IC50", "setting": "[1]; Homo sapiens, 192 h", "result": 6.5, "unit": "nM"}]}
{"compound": "Nc1nc2cc(Cl)c(C(=O)N3CCOCC3c3ccc(C(F)(F)F)cc3)cc2n2cncc12", "note": "(stereo in doubt) [Example 4B, (3S)-3-[4-(trifluoromethyl)phenyl]morpholin-4-yl 4-amino-7-chloro(10-hydroimidazo[1,5-a]quinoxalin-8-yl)one]", "values": [{"measurement": "IC50", "setting": "HCT-116 wild-type cells; Homo sapiens, 192 h", "result": 6520, "unit": "nM"}, {"measurement": "IC50", "setting": "[1]; Homo sapiens, 192 h", "result": 2780, "unit": "nM"}]}
{"compound": "Nc1nc2ccc(C(=O)N3CCCC[C@@H]3c3ccc(F)cc3)cc2n2cccc12", "note": "[Example 1, (R)-(4-aminopyrrolo[1,2-a]quinoxalin-8-yl)(2-(4-fluorophenyl)piperidin-1-yl)methanone]", "values": [{"measurement": "IC50", "setting": "HCT-116 wild-type cells; Homo sapiens, 192 h", "result": 10800, "unit": "nM"}, {"measurement": "IC50", "setting": "[1]; Homo sapiens, 192 h", "result": 3880, "unit": "nM"}]}
{"compound": "Nc1nc2cc(Cl)c(C(=O)N3CCCC[C@@H]3c3ccc(F)cc3)cc2n2cncc12", "note": "[Example 6, (2R)-2-(4-fluorophenyl)piperidyl4-amino-7-chloro(10-hydroimidazo[1,5-a]quinoxalin-8-yl)one]", "values": [{"measurement": "IC50", "setting": "HCT-116 wild-type cells; Homo sapiens, 192 h", "result": 2720, "unit": "nM"}, {"measurement": "IC50", "setting": "[1]; Homo sapiens, 192 h", "result": 28.8, "unit": "nM"}]}
{"compound": "Nc1nc2cc(F)c(C(=O)N3CCCC[C@@H]3c3ccc(F)cc3)cc2n2cncc12", "note": "[Example 7, (R)-(4-amino-7-fluoroimidazo[1,5-a]quinoxalin-8-yl)(2-(4-fluorophenyl)piperidin-1-yl)methanone]", "values": [{"measurement": "IC50", "setting": "HCT-116 wild-type cells; Homo sapiens, 192 h", "result": 1690, "unit": "nM"}, {"measurement": "IC50", "setting": "[1]; Homo sapiens, 192 h", "result": 24.3, "unit": "nM"}]}
{"compound": "Nc1nc2cc(F)c(C(=O)N3CCC(c4ccc(C(F)(F)F)cn4)C3)cc2n2cncc12", "note": "(centres unmarked) [Example 8, (4-amino-7-fluorimidazo[1,5-a]quinoxalin-8-yl)(3-(5-(trifluoromethyl)pyridin-2-yl)pyrrolidin-1-yl)methanone]", "values": [{"measurement": "IC50", "setting": "HCT-116 wild-type cells; Homo sapiens, 192 h", "result": "> 10000", "unit": "nM"}, {"measurement": "IC50", "setting": "[1]; Homo sapiens, 192 h", "result": 396, "unit": "nM"}]}
{"compound": "Nc1nc2cc(F)c(C(=O)N3CC(c4ccc(C(F)(F)F)cn4)C3)cc2n2cncc12", "note": "[Example 10]", "values": [{"measurement": "IC50", "setting": "HCT-116 wild-type cells; Homo sapiens, 192 h", "result": "> 10000", "unit": "nM"}, {"measurement": "IC50", "setting": "[1]; Homo sapiens, 192 h", "result": 795, "unit": "nM"}]}
{"compound": "C[C@@H]1COC[C@H](c2ccc(C(F)(F)F)cc2)N1C(=O)c1cc2c(cc1F)nc(N)c1cncn12", "note": "[Example 12, (4-amino-7-fluorimidazo[1,5-a]quinoxalin-8-yl)((3R,5S)-3-methyl-5-(4-(trifluoromethyl)phenyl)morpholinyl)methanone]", "values": [{"measurement": "IC50", "setting": "HCT-116 wild-type cells; Homo sapiens, 192 h", "result": 91.1, "unit": "nM"}, {"measurement": "IC50", "setting": "[1]; Homo sapiens, 192 h", "result": 3.2, "unit": "nM"}]}
{"compound": "Nc1nc2cc(F)c(C(=O)N3CCCC(c4ccc(C(F)(F)F)cc4)C3)cc2n2cncc12", "note": "(centres unmarked) [Example 13, (4-amino-7-fluimidazo[1,5-a]quinoxalin-8-yl)(3-(4-(trifluoromethyl)phenyl)piperidin-1-yl)methanone]", "values": [{"measurement": "IC50", "setting": "HCT-116 wild-type cells; Homo sapiens, 192 h", "result": 4180, "unit": "nM"}, {"measurement": "IC50", "setting": "[1]; Homo sapiens, 192 h", "result": 458, "unit": "nM"}]}
{"compound": "Nc1nc2cc(F)c(C(=O)N3CCC[C@H](c4ccc(C(F)(F)F)cc4)C3)cc2n2cncc12", "note": "[Example 13A]", "values": [{"measurement": "IC50", "setting": "HCT-116 wild-type cells; Homo sapiens, 192 h", "result": "> 10000", "unit": "nM"}, {"measurement": "IC50", "setting": "[1]; Homo sapiens, 192 h", "result": 516, "unit": "nM"}]}
{"compound": "Nc1nc2cc(F)c(C(=O)N3CCC[C@@H](c4ccc(C(F)(F)F)cc4)C3)cc2n2cncc12", "note": "[Example 13B]", "values": [{"measurement": "IC50", "setting": "HCT-116 wild-type cells; Homo sapiens, 192 h", "result": "> 10000", "unit": "nM"}, {"measurement": "IC50", "setting": "[1]; Homo sapiens, 192 h", "result": "> 3000", "unit": "nM"}]}
{"compound": "Nc1nc2ccc(C(=O)N3CCCC[C@@H]3c3ccc(F)cc3)cc2n2cncc12", "note": "[Example 14, (R)-(4-aminoimidazo[1,5-a]quinoxalin-8-yl)(2-(4-fluorophenyl)piperidin-1-yl)methanone]", "values": [{"measurement": "IC50", "setting": "HCT-116 wild-type cells; Homo sapiens, 192 h", "result": "> 10000", "unit": "nM"}, {"measurement": "IC50", "setting": "[1]; Homo sapiens, 192 h", "result": 671, "unit": "nM"}]}
{"compound": "Nc1nc2cc(F)c(C(=O)N3CCO[C@@H](c4ccc(C(F)(F)F)cc4)C3)cc2n2cncc12", "note": "[Example 15, (S)-(4-amino-7-fluoroimidazo[1,5-a]quinoxalin-8-yl)(2-(4-(trifluoromethyl)phenyl)morpholinyl)methanone]", "values": [{"measurement": "IC50", "setting": "HCT-116 wild-type cells; Homo sapiens, 192 h", "result": "> 10000", "unit": "nM"}, {"measurement": "IC50", "setting": "[1]; Homo sapiens, 192 h", "result": 933, "unit": "nM"}]}
{"compound": "Nc1nc2cc(F)c(C(=O)N3CCC[C@@H]3c3ccc(C(F)(F)F)cc3)cc2n2cncc12", "note": "[Example 16, (R)-(4-amino-7-fluorimidazo[1,5-a]quinoxalin-8-yl)(2-(4-(trifluoromethyl)phenyl)pyrrolidin-1-yl)methanone]", "values": [{"measurement": "IC50", "setting": "HCT-116 wild-type cells; Homo sapiens, 192 h", "result": "> 10000", "unit": "nM"}, {"measurement": "IC50", "setting": "[1]; Homo sapiens, 192 h", "result": 1300, "unit": "nM"}]}
{"compound": "Nc1nc2cc(F)c(C(=O)N3CCC[C@H]3c3ccc(C(F)(F)F)cc3)cc2n2cncc12", "note": "[Example 17, (S)-(4-amino-7-fluorimidazo[1,5-a]quinoxalin-8-yl)(2-(4-(trifluoromethyl)phenyl)pyrrolidin-1-yl)methanone]", "values": [{"measurement": "IC50", "setting": "HCT-116 wild-type cells; Homo sapiens, 192 h", "result": "> 10000", "unit": "nM"}, {"measurement": "IC50", "setting": "[1]; Homo sapiens, 192 h", "result": "> 3000", "unit": "nM"}]}
{"compound": "Nc1nc2ccc(C(=O)N3CCCCC3c3cnc4cccnc4c3)cc2n2cncc12", "note": "(centres unmarked) [Example 18]", "values": [{"measurement": "IC50", "setting": "HCT-116 wild-type cells; Homo sapiens, 192 h", "result": "> 10000", "unit": "nM"}, {"measurement": "IC50", "setting": "[1]; Homo sapiens, 192 h", "result": 1400, "unit": "nM"}]}
{"compound": "Nc1nc2ccc(C(=O)N3CCCCC3c3ccc(Oc4ccc(F)cc4)cc3)cc2n2cncc12", "note": "(centres unmarked) [Example 19]", "values": [{"measurement": "IC50", "setting": "HCT-116 wild-type cells; Homo sapiens, 192 h", "result": 6380, "unit": "nM"}, {"measurement": "IC50", "setting": "[1]; Homo sapiens, 192 h", "result": 472, "unit": "nM"}]}
{"compound": "Nc1nc2ccc(C(=O)N3CCCCC3c3ccc(C(F)(F)F)cn3)cc2n2cncc12", "note": "(centres unmarked) [Example 21]", "values": [{"measurement": "IC50", "setting": "HCT-116 wild-type cells", "result": "> 10000", "unit": "nM"}, {"measurement": "IC50", "setting": "[1]", "result": 80.4, "unit": "nM"}]}
{"compound": "Nc1nc2ccc(C(=O)N3CCCCC3c3ccc(OC(F)(F)F)cc3)cc2n2cncc12", "note": "(centres unmarked) [Example 22, (4-aminoimidazo[1,5-a]quinoxalin-8-yl)2-(4-(trifluoromethoxy)phenyl)piperidin-1-yl ketone]", "values": [{"measurement": "IC50", "setting": "HCT-116 wild-type cells", "result": 8130, "unit": "nM"}, {"measurement": "IC50", "setting": "[1]", "result": 45.2, "unit": "nM"}]}
{"compound": "Cn1ncc2cc(C3CCCCN3C(=O)c3ccc4nc(N)c5cncn5c4c3)cnc21", "note": "(centres unmarked) [Example 23, (4-aminoimidazo[1,5-a]quinoxalin-8-yl) 2-(1-methylpyrazolo[3,4-b]pyridin-5-yl)piperidin-1-methanone]", "values": [{"measurement": "IC50", "setting": "HCT-116 wild-type cells", "result": "> 10000", "unit": "nM"}, {"measurement": "IC50", "setting": "[1]", "result": 741, "unit": "nM"}]}
{"compound": "Nc1nc2ccc(C(=O)N3CCCCC3c3ccc4ccccc4n3)cc2n2cncc12", "note": "(centres unmarked) [Example 24]", "values": [{"measurement": "IC50", "setting": "HCT-116 wild-type cells; Homo sapiens, 192 h", "result": "> 10000", "unit": "nM"}, {"measurement": "IC50", "setting": "[1]; Homo sapiens, 192 h", "result": 242, "unit": "nM"}]}
{"compound": "(4-amino-7-fluimidazo[1,5-a]quinoxalin-8-yl)2-(1-methylpyr azolo[3,4-b]pyridin-5-yl)piperidin-1-methanone [Example 20]", "values": [{"measurement": "IC50", "setting": "HCT-116 wild-type cells", "result": "> 10000", "unit": "nM"}, {"measurement": "IC50", "setting": "[1]", "result": 83.3, "unit": "nM"}]}
